From patent US10988523B2, “Modified lipidated Relaxin B chain peptides and their therapeutic use” (Sanofi, priority 2018, dated 2021)
*1 amine or outer side, *2 acyl side, *3 side chain or, on linkers, in order; H or OH if unused. Where a SMILES comes first, the peptide text is derived from it. Side-chain parts run from the residue outwards. [ ]: non-standard residue; d: D form. The star is where a group is joined. X12 = CCCCCCCCCCCCCCCC(=O)N[C@@H](CCC(=O)N[C@@H](CCC(=O)N[C@@H](CCC(=O)NCCCC[C@H](NC(=O)COCC(=O)NCCCOCCOCCOCCCNC(=O)COCC(=O)NCCCOCCOCCOCCCN*)C(N)=O)C(=O)O)C(=O)O)C(=O)O; X13 = CCCCCCCCCCCCCCCC(=O)N[C@@H](CCC(=O)N[C@@H](CCC(=O)N[C@@H](CCC(=O)NCCCC[C@H](NC(=O)COCC(=O)NCCCOCCOCCOCCCN*)C(N)=O)C(=O)O)C(=O)O)C(=O)O; Docosanoyl = CCCCCCCCCCCCCCCCCCCCCC(=O)*; PEG8 = NCCOCCOCCOCCOCCOCCOCCOCCOCCC(=O)O; γGlu = O=C(O)[C@H](CCC(=O)[*:2])N[*:1]; Stearoyl = CCCCCCCCCCCCCCCCCC(=O)*; Palmitoyl = CCCCCCCCCCCCCCCC(=O)*; Myristoyl = CCCCCCCCCCCCCC(=O)*; Nle = CCCC[C@H](N)C(=O)O; AEEA = NCCOCCOCC(=O)O; Aib = CC(C)(N)C(=O)O

Molecular target: T1, RXFP1 (Homo sapiens, UniProt Q9HBX9)
T1 construct: OVCAR5 cells expressing endogenous RXFP1; endogenous in cells; host or cells: OVCAR5 cells
T1 sequence (Q9HBX9 1-757): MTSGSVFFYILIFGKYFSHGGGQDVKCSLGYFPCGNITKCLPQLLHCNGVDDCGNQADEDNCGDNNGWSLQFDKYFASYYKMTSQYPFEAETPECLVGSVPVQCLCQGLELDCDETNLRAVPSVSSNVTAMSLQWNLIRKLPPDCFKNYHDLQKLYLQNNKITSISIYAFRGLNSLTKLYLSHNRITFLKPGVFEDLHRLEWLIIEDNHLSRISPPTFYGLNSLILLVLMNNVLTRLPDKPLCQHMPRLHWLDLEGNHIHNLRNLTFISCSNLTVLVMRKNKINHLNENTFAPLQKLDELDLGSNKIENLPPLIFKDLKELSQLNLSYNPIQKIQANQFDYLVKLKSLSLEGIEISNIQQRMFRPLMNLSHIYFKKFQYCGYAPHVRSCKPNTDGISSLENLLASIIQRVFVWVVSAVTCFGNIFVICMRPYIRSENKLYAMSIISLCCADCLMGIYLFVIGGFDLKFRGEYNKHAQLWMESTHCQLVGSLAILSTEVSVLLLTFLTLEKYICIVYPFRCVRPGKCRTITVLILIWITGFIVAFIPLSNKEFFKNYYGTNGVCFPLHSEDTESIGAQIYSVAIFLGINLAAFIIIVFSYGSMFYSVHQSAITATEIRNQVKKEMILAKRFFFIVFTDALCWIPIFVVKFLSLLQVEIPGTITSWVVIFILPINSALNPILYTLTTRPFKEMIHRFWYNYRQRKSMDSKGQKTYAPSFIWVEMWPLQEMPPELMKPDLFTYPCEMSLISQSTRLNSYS
Assay: OVCAR5 cAMP assay (HTRF), RXFP1 agonist activity
Format: cell-based
Conditions: for EC50: OVCAR5 cells, cAMP HTRF, read-out: EC50 (nM), OVCAR 5 cells (cAMP); for Emax: OVCAR-5, maximal cAMP relative to H2-relaxin maximum (100%), read-out: EMax, OVCAR 5 cells (cAMP)
How it was run: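 cAMP accumulation readout: after 1 mM IBMX for 40 min, endogenous-RXFP1 OVCAR5 cells got rising peptide concentrations without FCS, 30 min, 37° C, then lysis with HTRF cAMP reagents. Nonlinear regression gave EC50; Emax expressed relative to H2-relaxin maximum, same occasion.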

Row | EC50 | Emax | Compound
1 | – | 80% | CCCCCCCCCCCCCCCC(=O)N[C@@H](CCC(=O)N[C@@H](CCC(=O)N[C@@H](CCC(=O)NCCCC[C@H](NC(=O)COCCOCCNC(=O)COCCOCCNC(=O)COCCOCCNC(=O)[C@H](CCCCNC(C)=O)NC(=O)[C@H](CCCCN)NC(=O)[C@H](CCCNC(=N)N)NC(=O)C(C)(C)NC(=O)[C@H](CO)NC(=O)[C@H](Cc1ccc(O)cc1)NC(=O)[C@@H](NC(=O)[C@H](CO)NC(=O)[C@H](CCC(N)=O)NC(=O)CNC(=O)[C@H](CCC(=O)O)NC(=O)C(C)(C)NC(=O)C(C)(C)NC(=O)[C@@H](NC(=O)[C@H](CCCCNC(C)=O)NC(=O)[C@H](C)NC(=O)[C@H](CCCNC(=N)N)NC(=O)[C@@H](NC(=O)[C@H](CCCCN)NC(=O)[C@H](CCC(=O)O)NC(=O)[C@H](CCCNC(=N)N)NC(=O)CNC(=O)[C@H](CCC(=O)O)NC(=O)[C@H](CC(C)C)NC(C)=O)C(C)C)[C@@H](C)CC)[C@@H](C)O)C(N)=O)C(=O)O)C(=O)O)C(=O)O [compound 179] (Ac-LEGREKVRAK(Ac)I[Aib][Aib]EGQSTYS[Aib]RKK(Ac)[AEEA][AEEA][AEEA]K([γGlu-γGlu-γGlu-Palmitoyl])-NH2)
2 | – | 84% | CCCCCCCCCCCCCCCCCC(=O)N[C@@H](CCC(=O)N[C@@H](CCC(=O)N[C@@H](CCC(=O)N[C@@H](CCC(=O)NCCOCCOCC(=O)NCCOCCOCC(=O)NCCOCCOCC(=O)NCCOCCOCC(=O)NCCCC[C@H](NC(=O)[C@H](CCCCNC(C)=O)NC(=O)[C@H](CCCCN)NC(=O)[C@H](CCCNC(=N)N)NC(=O)C(C)(C)NC(=O)[C@H](CO)NC(=O)[C@H](Cc1c[nH]c2ccccc12)NC(=O)[C@@H](NC(=O)[C@H](CO)NC(=O)[C@H](CCC(N)=O)NC(=O)CNC(=O)[C@H](CCC(=O)O)NC(=O)C(C)(C)NC(=O)C(C)(C)NC(=O)[C@@H](NC(=O)[C@H](CCCCNC(C)=O)NC(=O)[C@H](C)NC(=O)[C@H](CCCNC(=N)N)NC(=O)[C@@H](NC(=O)[C@H](CCCCN)NC(=O)[C@H](CCC(=O)O)NC(=O)[C@H](CCCNC(=N)N)NC(=O)CNC(=O)[C@H](CCC(=O)O)NC(=O)[C@H](CC(C)C)NC(C)=O)C(C)C)[C@@H](C)CC)[C@@H](C)O)C(N)=O)C(=O)O)C(=O)O)C(=O)O)C(=O)O [compound 180] (Ac-LEGREKVRAK(Ac)I[Aib][Aib]EGQSTWS[Aib]RKK(Ac)K([AEEA-AEEA-AEEA-AEEA-γGlu-γGlu-γGlu-γGlu-Stearoyl])-NH2)
3 | – | 79% | CCCCCCCCCCCCCCCC(=O)N[C@@H](CCC(=O)N[C@@H](CCC(=O)N[C@@H](CCC(=O)NCCCC[C@H](NC(=O)CCOCCOCCOCCOCCOCCOCCOCCOCCNC(=O)[C@H](CCCCNC(C)=O)NC(=O)[C@H](CCCCN)NC(=O)[C@H](CCCNC(=N)N)NC(=O)C(C)(C)NC(=O)[C@H](CO)NC(=O)[C@H](Cc1c[nH]c2ccccc12)NC(=O)[C@@H](NC(=O)[C@H](CO)NC(=O)[C@H](CCCC)NC(=O)CNC(=O)[C@H](CCC(=O)O)NC(=O)C(C)(C)NC(=O)C(C)(C)NC(=O)[C@@H](NC(=O)[C@H](CCCCNC(C)=O)NC(=O)[C@H](C)NC(=O)[C@H](CCCNC(=N)N)NC(=O)[C@@H](NC(=O)[C@H](CCCCN)NC(=O)[C@H](CCC(=O)O)NC(=O)[C@H](CCCNC(=N)N)NC(=O)CNC(=O)[C@H](CCC(=O)O)NC(=O)[C@H](CC(C)C)NC(C)=O)C(C)C)[C@@H](C)CC)[C@@H](C)O)C(N)=O)C(=O)O)C(=O)O)C(=O)O [compound 181] (Ac-LEGREKVRAK(Ac)I[Aib][Aib]EG[Nle]STWS[Aib]RKK(Ac)[PEG8]K([γGlu-γGlu-γGlu-Palmitoyl])-NH2)

The remaining lines, values behind:

Row | Compound | EC50 | Emax
4 | CCCCCCCCCCCCCCCCCCCCCC(=O)N[C@@H](CCC(=O)N[C@@H](CCC(=O)N[C@@H](CCC(=O)NCCOCCOCC(=O)NCCOCCOCC(=O)NCCOCCOCC(=O)NCCCC[C@H](NC(=O)[C@H](CCCCNC(C)=O)NC(=O)[C@H](CCCCN)NC(=O)[C@H](CCCNC(=N)N)NC(=O)C(C)(C)NC(=O)[C@H](CO)NC(=O)[C@H](Cc1c[nH]c2ccccc12)NC(=O)[C@@H](NC(=O)[C@H](CO)NC(=O)[C@H](CCCC)NC(=O)CNC(=O)[C@H](CCC(=O)O)NC(=O)C(C)(C)NC(=O)C(C)(C)NC(=O)[C@@H](NC(=O)[C@H](CCCCNC(C)=O)NC(=O)[C@H](C)NC(=O)[C@H](CCCNC(=N)N)NC(=O)[C@@H](NC(=O)[C@H](CCCCN)NC(=O)[C@H](CCC(=O)O)NC(=O)[C@H](CCCNC(=N)N)NC(=O)CNC(=O)[C@H](CCC(=O)O)NC(=O)[C@H](CC(C)C)NC(C)=O)C(C)C)[C@@H](C)CC)[C@@H](C)O)C(N)=O)C(=O)O)C(=O)O)C(=O)O [compound 173] (Ac-LEGREKVRAK(Ac)I[Aib][Aib]EG[Nle]STWS[Aib]RKK(Ac)K([AEEA-AEEA-AEEA-γGlu-γGlu-γGlu-Docosanoyl])-NH2) | 0.19 nM | 85%
5 | CCCCCCCCCCCCCCCC(=O)N[C@@H](CCC(=O)N[C@@H](CCC(=O)N[C@@H](CCC(=O)NCCCC[C@H](NC(=O)COCC(=O)NCCCOCCOCCOCCCNC(=O)[C@H](CCCCNC(C)=O)NC(=O)[C@H](CCCCN)NC(=O)[C@H](CCCNC(=N)N)NC(=O)C(C)(C)NC(=O)[C@H](CO)NC(=O)[C@H](Cc1c[nH]c2ccccc12)NC(=O)[C@@H](NC(=O)[C@H](CO)NC(=O)[C@H](CCCC)NC(=O)CNC(=O)[C@H](CCC(=O)O)NC(=O)C(C)(C)NC(=O)C(C)(C)NC(=O)[C@@H](NC(=O)[C@H](CCCCNC(C)=O)NC(=O)[C@H](C)NC(=O)[C@H](CCCNC(=N)N)NC(=O)[C@@H](NC(=O)[C@H](CCCCN)NC(=O)[C@H](CCC(=O)O)NC(=O)[C@H](CCCNC(=N)N)NC(=O)CNC(=O)[C@H](CCC(=O)O)NC(=O)[C@H](CC(C)C)NC(C)=O)C(C)C)[C@@H](C)CC)[C@@H](C)O)C(N)=O)C(=O)O)C(=O)O)C(=O)O [compound 175] (Ac-LEGREKVRAK(Ac)I[Aib][Aib]EG[Nle]STWS[Aib]RKK(Ac)-X13) | – | 87%
6 | CCCCCCCCCCCCCCCC(=O)N[C@@H](CCC(=O)N[C@@H](CCC(=O)N[C@@H](CCC(=O)NCCCC[C@H](NC(=O)COCC(=O)NCCCOCCOCCOCCCNC(=O)[C@H](CCCCNC(C)=O)NC(=O)[C@H](CCCCN)NC(=O)[C@H](CCCNC(=N)N)NC(=O)C(C)(C)NC(=O)[C@H](CO)NC(=O)[C@H](Cc1c[nH]c2ccccc12)NC(=O)[C@@H](NC(=O)[C@H](CO)NC(=O)[C@H](CCC(N)=O)NC(=O)CNC(=O)[C@H](CCC(=O)O)NC(=O)C(C)(C)NC(=O)C(C)(C)NC(=O)[C@@H](NC(=O)[C@H](CCCCNC(C)=O)NC(=O)[C@H](C)NC(=O)[C@H](CCCNC(=N)N)NC(=O)[C@@H](NC(=O)[C@H](CCCCN)NC(=O)[C@H](CCC(=O)O)NC(=O)[C@H](CCCNC(=N)N)NC(=O)CNC(=O)[C@H](CCC(=O)O)NC(=O)[C@H](CC(C)C)NC(C)=O)C(C)C)[C@@H](C)CC)[C@@H](C)O)C(N)=O)C(=O)O)C(=O)O)C(=O)O [compound 176] (Ac-LEGREKVRAK(Ac)I[Aib][Aib]EGQSTWS[Aib]RKK(Ac)-X13) | – | 90%
7 | CCCCCCCCCCCCCCCC(=O)N[C@@H](CCC(=O)N[C@@H](CCC(=O)N[C@@H](CCC(=O)NCCCC[C@H](NC(=O)COCC(=O)NCCCOCCOCCOCCCNC(=O)COCC(=O)NCCCOCCOCCOCCCNC(=O)[C@H](CCCCNC(C)=O)NC(=O)[C@H](CCCCN)NC(=O)[C@H](CCCNC(=N)N)NC(=O)C(C)(C)NC(=O)[C@H](CO)NC(=O)[C@H](Cc1c[nH]c2ccccc12)NC(=O)[C@@H](NC(=O)[C@H](CO)NC(=O)[C@H](CCC(N)=O)NC(=O)CNC(=O)[C@H](CCC(=O)O)NC(=O)C(C)(C)NC(=O)C(C)(C)NC(=O)[C@@H](NC(=O)[C@H](CCC(N)=O)NC(=O)[C@H](C)NC(=O)[C@H](CCCNC(=N)N)NC(=O)[C@@H](NC(=O)[C@H](CCCCN)NC(=O)[C@H](CCC(=O)O)NC(=O)[C@H](CCCNC(=N)N)NC(=O)CNC(=O)[C@H](CCC(=O)O)NC(=O)[C@H](CC(C)C)NC(C)=O)C(C)C)[C@@H](C)CC)[C@@H](C)O)C(N)=O)C(=O)O)C(=O)O)C(=O)O [compound 177] (Ac-LEGREKVRAQI[Aib][Aib]EGQSTWS[Aib]RKK(Ac)-X12) | – | 91%
8 | CCCCCCCCCCCCCC(=O)N[C@@H](CCC(=O)N[C@@H](CCC(=O)N[C@@H](CCC(=O)NCCOCCOCC(=O)NCCOCCOCC(=O)NCCOCCOCC(=O)NCCCC[C@H](NC(=O)[C@H](CCCCNC(C)=O)NC(=O)[C@H](CCCCN)NC(=O)[C@H](CCCNC(=N)N)NC(=O)C(C)(C)NC(=O)[C@H](CO)NC(=O)[C@H](Cc1c[nH]c2ccccc12)NC(=O)[C@@H](NC(=O)[C@H](CO)NC(=O)[C@H](CCCC)NC(=O)CNC(=O)[C@H](CCC(=O)O)NC(=O)C(C)(C)NC(=O)C(C)(C)NC(=O)[C@@H](NC(=O)[C@H](CCCCNC(C)=O)NC(=O)[C@H](C)NC(=O)[C@H](CCCNC(=N)N)NC(=O)[C@@H](NC(=O)[C@H](CCCCN)NC(=O)[C@H](CCC(=O)O)NC(=O)[C@H](CCCNC(=N)N)NC(=O)CNC(=O)[C@H](CCC(=O)O)NC(=O)[C@H](CC(C)C)NC(C)=O)C(C)C)[C@@H](C)CC)[C@@H](C)O)C(N)=O)C(=O)O)C(=O)O)C(=O)O [compound 178] (Ac-LEGREKVRAK(Ac)I[Aib][Aib]EG[Nle]STWS[Aib]RKK(Ac)K([AEEA-AEEA-AEEA-γGlu-γGlu-γGlu-Myristoyl])-NH2) | 17.6 nM | 93%
